Measured values published in US20100331305A1, “OXO-HETEROCYCLE FUSED PYRIMIDINE COMPOUNDS, COMPOSITIONS AND METHODS OF USE” (Genentech, Inc., priority 2009, published 2010).

These compounds were tested on PC3 cells (assay: In vitro cell proliferation assay). Conditions: Homo sapiens, PC-3, with PC3 cells; values tied to compounds by order of Table 1.
Assay type: cell-based, human
Description: c. In Vitro Cell Proliferation Assay Efficacy of Formula I compounds were measured by a cell proliferation assay employing the following protocol: 1. An aliquot of 20 μl of cell culture containing about 10^3 cells (PC3 or MDAMB361.1) in medium was deposited in each well of a 384-well, opaque-walled plate. 2. Control wells were prepared containing medium and without cells; Cells were allowed to settle overnight. 3. The compound was added to the experimental wells and incubated for 3 days. 4. The plates were equilibrated to room temperature for approximately 30 minutes. 5. A volume of CellTiter-Glo Reagent equal to the volume of cell culture medium present in each well was added. […] The contents were mixed for 2 minutes on an orbital shaker to induce cell lysis. 7. The plate was incubated at room temperature for 20 minutes to stabilize the luminescence signal. 8. Luminescence was recorded and reported in graphs as RLU=relative luminescence units. Alternatively, cells were seeded at optimal density in a 96 well plate and incubated for 4 days in the presence of test compound. Alamar BlueTM was subsequently added to the assay medium, and cells were incubated for 6 h before reading at 544 nm excitation, 590 nm emission. EC50 values were calculated using a sigmoidal dose response curve fit.

Structure (SMILES) | EC50
CCC[C@]1(C)OCc2c(N3C[C@H]4CC[C@@H](C3)O4)nc(-c3ccc(NC(=O)NCC)cc3)nc21 [Example 74 ej (S), 1-(4-((S)-4-((1R,5S)-8-oxa-3-azabicyclo[3.2.1]octan-3-yl)-7-methyl-7-propyl-5,7-dihydrofuro[3,4-d]pyrimidin-2-yl)phenyl)-3-ethylurea] | 0.051 µM
C=CC[C@@]1(C)OCc2c(N3CCOCC3)nc(-c3ccc(NC(=O)NCC)cc3)nc21 [Example 73 eb (R), (R)-1-(4-(7-allyl-7-methyl-4-morpholino-5,7-dihydrofuro[3,4-d]pyrimidin-2-yl)phenyl)-3-ethylurea] | 0.0961 µM
CCC[C@@]1(C)OCc2c(N3C[C@H]4CC[C@@H](C3)O4)nc(-c3ccc(NC(=O)NCC)cc3)nc21 [Example 74 ej (R), 1-(4-((R)-4-((1R,5S)-8-oxa-3-azabicyclo[3.2.1]octan-3-yl)-7-methyl-7-propyl-5,7-dihydrofuro[3,4-d]pyrimidin-2-yl)phenyl)-3-ethylurea] | 0.019 µM
CCNC(=O)Nc1ccc(-c2nc(N3CCOCC3C)c3c(n2)C(C)(CCOc2ccccc2)OC3)cc1 (stereo not shown) [Example 91 ft^1, 1-ethyl-3-(4-(7-methyl-4-(3-methylmorpholino)-7-(2-phenoxyethyl)-5,7-dihydrofuro[3,4-d]pyrimidin-2-yl)phenyl)urea] | 0.297 µM
CC[C@H]1COCCN1c1nc(-c2ccc(NC(=O)NC3COC3)cc2)nc2c1COCC2 [Example 6, (S)-1-(4-(4-(3-ethylmorpholino)-7,8-dihydro-5H-pyrano[4,3-d]pyrimidin-2-yl)phenyl)-3-(oxetan-3-yl)urea] | 0.18 µM

The next lines start with the values.

EC50 | Structure (SMILES)
0.322 µM | CCNC(=O)Nc1ccc(-c2nc(N3CCOC[C@@H]3C)c3c(n2)[C@@](C)(CCCO)OC3)cc1 [Example 75 el (R), 1-ethyl-3-(4-((R)-7-(3-hydroxypropyl)-7-methyl-4-((S)-3-methylmorpholino)-5,7-dihydrofuro[3,4-d]pyrimidin-2-yl)phenyl)urea]
0.062 µM | CCNC(=O)Nc1ccc(-c2nc(N3CCOC[C@@H]3C)c3c(n2)[C@](C)(CCCO)OC3)cc1 [Example 75 el (S), 1-ethyl-3-(4-((S)-7-(3-hydroxypropyl)-7-methyl-4-((S)-3-methylmorpholino)-5,7-dihydrofuro[3,4-d]pyrimidin-2-yl)phenyl)urea]
0.238 µM | CCNC(=O)Nc1ccc(-c2nc(N3CCOC[C@@H]3C)c3c(n2)[C@](C)(CCOc2ccncc2)OC3)cc1 [Example 92 fu^1]
0.153 µM | C=CC[C@]1(C)OCc2c(N3C[C@H]4CC[C@@H](C3)O4)nc(-c3ccc(NC(=O)NCC)cc3)nc21 [Example 74 eh (S), 1-(4-((S)-7-allyl-4-((1R,5S)-8-oxa-3-azabicyclo[3.2.1]octan-3-yl)-7-methyl-5,7-dihydrofuro[3,4-d]pyrimidin-2-yl)phenyl)-3-ethylurea]
0.095 µM | C=CC[C@@]1(C)OCc2c(N3C[C@H]4CC[C@@H](C3)O4)nc(-c3ccc(NC(=O)NCC)cc3)nc21 [Example 74 eh (R), 1-(4-((R)-7-allyl-4-((1R,5S)-8-oxa-3-azabicyclo[3.2.1]octan-3-yl)-7-methyl-5,7-dihydrofuro[3,4-d]pyrimidin-2-yl)phenyl)-3-ethylurea]
